# Publication PMC5033074 (Nature chemical biology, 2016)
# Like-named read-outs stand apart in the source and are kept apart here.
# How the values were obtained:
# [1] = tested on: Pol II CTD Ser2 phosphorylation; conditions: cited from earlier work
# [2] = tested on: Pol II CTD Ser2 phosphorylation; assay: Pol II CTD phosphorylation immunoblot; assay type: cell-based, human; conditions: Jurkat cells, 6 hrs
# [3] = target: CDK12- cyclin K complex (Homo sapiens, UniProt Q9NYV4); assay: mass spectrometry of protein-inhibitor complex; assay type: binding; conditions: 17 µM complex, 25 µM compound, overnight at 4°C
# Sequence of CDK12- cyclin K complex (Q9NYV4 715-1052, one chain of several): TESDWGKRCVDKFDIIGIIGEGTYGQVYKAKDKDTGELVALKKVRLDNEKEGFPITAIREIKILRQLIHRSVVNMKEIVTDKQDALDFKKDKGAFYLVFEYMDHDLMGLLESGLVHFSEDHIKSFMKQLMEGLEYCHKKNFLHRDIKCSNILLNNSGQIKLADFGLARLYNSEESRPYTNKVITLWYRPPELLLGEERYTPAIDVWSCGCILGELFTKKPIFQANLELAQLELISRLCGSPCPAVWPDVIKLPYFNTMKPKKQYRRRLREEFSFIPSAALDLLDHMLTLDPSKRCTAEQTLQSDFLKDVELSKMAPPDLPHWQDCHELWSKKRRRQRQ
# [4] = tested on: HAP1 cells; assay: HAP1 WT vs CDK12 C1039S proliferation assay; assay type: cell-based, human; conditions: 72 hours
# [5] = tested on: Jurkat T-cell acute lymphoblastic leukemia cells; assay: Jurkat proliferation assay; assay type: cell-based, human; conditions: for antiproliferative activity in Jurkat cells: 72 hrs, CellTiter Glo
# [6] = target: ERK1 (Homo sapiens, UniProt P27361); assay: kinase assay, control kinase; assay type: biochemical
# Sequence of ERK1 (P27361 whole entry, species assumed): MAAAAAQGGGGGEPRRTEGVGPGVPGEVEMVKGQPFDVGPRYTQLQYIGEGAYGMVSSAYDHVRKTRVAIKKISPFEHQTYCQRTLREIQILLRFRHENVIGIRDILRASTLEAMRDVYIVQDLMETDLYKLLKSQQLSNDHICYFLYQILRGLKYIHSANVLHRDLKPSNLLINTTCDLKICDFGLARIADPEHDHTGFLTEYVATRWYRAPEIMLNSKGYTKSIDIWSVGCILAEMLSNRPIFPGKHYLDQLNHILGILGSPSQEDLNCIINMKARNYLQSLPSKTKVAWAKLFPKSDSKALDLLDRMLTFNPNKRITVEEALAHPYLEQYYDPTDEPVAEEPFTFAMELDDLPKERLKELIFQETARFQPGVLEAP
# [7] = target: CDK12-cyclin K complexes (Homo sapiens, UniProt Q9NYV4); assay: target-engagement assay; assay type: cell-based; conditions: competition with lysate-introduced bioTHZ1
# [8] = tested on: Jurkat cells; assay: Annexin V / propidium iodide flow cytometry; assay type: cell-based, human
# [9] = target: CDK13 (Homo sapiens, UniProt Q14004); assay: Ambit in vitro binding profiling
# Sequence of CDK13 (Q14004 whole entry): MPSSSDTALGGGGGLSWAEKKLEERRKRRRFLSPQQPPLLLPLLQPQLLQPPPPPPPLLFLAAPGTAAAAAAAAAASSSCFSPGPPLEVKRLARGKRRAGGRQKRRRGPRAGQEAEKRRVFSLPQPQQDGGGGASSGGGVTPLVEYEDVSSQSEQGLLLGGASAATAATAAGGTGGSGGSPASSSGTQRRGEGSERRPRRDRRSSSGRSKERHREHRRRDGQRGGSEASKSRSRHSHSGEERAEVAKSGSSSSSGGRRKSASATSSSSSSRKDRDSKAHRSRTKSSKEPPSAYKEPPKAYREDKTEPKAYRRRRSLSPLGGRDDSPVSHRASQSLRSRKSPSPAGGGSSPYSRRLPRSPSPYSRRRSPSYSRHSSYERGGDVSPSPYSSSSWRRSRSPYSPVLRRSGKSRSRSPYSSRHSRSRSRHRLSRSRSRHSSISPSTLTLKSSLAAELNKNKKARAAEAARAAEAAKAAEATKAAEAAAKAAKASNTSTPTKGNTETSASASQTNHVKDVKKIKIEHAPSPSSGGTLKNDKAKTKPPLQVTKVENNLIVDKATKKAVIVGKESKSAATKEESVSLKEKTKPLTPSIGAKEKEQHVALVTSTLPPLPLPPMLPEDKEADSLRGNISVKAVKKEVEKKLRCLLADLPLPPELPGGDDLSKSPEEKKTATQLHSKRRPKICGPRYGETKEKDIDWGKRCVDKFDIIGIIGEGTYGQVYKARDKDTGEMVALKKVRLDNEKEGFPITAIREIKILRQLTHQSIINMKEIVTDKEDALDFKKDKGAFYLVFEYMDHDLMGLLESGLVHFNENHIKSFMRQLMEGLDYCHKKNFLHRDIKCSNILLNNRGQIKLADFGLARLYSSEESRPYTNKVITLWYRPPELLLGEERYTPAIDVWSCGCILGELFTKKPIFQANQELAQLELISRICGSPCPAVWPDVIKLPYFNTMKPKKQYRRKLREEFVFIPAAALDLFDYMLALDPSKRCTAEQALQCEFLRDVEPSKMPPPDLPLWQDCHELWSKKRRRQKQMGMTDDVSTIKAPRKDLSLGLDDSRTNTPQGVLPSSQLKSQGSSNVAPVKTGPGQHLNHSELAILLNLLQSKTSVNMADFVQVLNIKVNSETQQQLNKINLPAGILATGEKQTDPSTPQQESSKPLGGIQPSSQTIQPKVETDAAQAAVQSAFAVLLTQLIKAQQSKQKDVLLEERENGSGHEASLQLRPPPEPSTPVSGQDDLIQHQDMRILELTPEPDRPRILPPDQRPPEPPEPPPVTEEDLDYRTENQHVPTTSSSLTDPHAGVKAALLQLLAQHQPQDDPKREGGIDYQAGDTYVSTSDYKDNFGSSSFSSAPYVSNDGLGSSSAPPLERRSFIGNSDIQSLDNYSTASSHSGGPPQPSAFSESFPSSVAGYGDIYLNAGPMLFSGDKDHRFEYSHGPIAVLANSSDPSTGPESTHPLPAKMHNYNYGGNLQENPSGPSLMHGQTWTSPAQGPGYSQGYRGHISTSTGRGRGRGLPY
# [10] = tested on: other 211 kinases; assay: KiNativ intracellular kinase profiling; conditions: ATP-desthiobiotin probe
# [11] = tested on: pSer2 Pol II occupancy in Jurkat cells; assay: pSer2 Pol II ChIP-seq; assay type: cell-based, human
# [12] = tested on: steady-state mRNA levels in Jurkat cells; assay: gene expression analysis; assay type: cell-based, human; conditions: for effect on steady-state mRNA levels: 500 nM, 6h
# [13] = target: CDK7-cyclin H-MAT1 (Homo sapiens, UniProt P50613); assay type: biochemical; conditions: compared with THZ531
# Sequence of CDK7-cyclin H-MAT1 (P50613 whole entry): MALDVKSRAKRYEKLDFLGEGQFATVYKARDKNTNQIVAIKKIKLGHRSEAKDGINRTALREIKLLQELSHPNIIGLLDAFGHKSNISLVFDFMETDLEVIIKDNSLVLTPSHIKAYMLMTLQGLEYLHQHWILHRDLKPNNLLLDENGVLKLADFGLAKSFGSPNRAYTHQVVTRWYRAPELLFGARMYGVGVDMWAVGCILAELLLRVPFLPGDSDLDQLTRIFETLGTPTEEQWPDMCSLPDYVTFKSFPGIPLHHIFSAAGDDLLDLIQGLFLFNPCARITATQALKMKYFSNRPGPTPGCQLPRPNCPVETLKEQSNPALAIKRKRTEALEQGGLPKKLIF
# Sequence of CDK7-cyclin H-MAT1 (P51946 whole entry partner): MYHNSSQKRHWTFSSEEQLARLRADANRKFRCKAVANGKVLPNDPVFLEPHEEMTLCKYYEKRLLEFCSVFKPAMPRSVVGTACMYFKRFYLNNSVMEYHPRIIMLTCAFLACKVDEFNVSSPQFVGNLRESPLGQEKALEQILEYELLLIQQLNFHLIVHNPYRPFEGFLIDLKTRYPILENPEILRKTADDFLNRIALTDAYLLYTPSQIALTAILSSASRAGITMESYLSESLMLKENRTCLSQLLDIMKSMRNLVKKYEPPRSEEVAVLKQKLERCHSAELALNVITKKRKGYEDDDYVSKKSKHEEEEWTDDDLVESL
# Sequence of CDK7-cyclin H-MAT1 (P51948 whole entry partner): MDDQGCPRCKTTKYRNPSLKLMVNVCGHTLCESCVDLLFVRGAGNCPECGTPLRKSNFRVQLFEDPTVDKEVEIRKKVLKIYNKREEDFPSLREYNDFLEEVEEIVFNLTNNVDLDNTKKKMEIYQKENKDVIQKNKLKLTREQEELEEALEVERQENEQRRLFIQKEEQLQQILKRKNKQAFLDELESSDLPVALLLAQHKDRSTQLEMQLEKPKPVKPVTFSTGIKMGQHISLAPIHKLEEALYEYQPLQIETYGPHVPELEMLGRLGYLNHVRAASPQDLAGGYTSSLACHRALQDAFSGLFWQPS
# [14] = target: CDK12-cyclin K (Homo sapiens, UniProt Q9NYV4); assay type: biochemical; conditions: relative to THZ531
# Sequence of CDK12-cyclin K (Q9NYV4 696-1082 limits assumed): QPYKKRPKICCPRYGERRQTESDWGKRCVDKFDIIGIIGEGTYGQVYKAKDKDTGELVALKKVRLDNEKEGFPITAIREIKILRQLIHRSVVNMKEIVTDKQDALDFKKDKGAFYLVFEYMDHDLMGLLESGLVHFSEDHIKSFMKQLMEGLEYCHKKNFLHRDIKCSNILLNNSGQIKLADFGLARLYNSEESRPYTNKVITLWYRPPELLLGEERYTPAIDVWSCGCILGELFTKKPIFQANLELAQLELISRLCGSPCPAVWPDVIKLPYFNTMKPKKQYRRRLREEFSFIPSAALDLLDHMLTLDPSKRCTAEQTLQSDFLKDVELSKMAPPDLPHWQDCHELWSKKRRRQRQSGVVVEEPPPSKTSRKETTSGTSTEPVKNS
# Sequence of CDK12-cyclin K (O75909 1-267 partner limits assumed): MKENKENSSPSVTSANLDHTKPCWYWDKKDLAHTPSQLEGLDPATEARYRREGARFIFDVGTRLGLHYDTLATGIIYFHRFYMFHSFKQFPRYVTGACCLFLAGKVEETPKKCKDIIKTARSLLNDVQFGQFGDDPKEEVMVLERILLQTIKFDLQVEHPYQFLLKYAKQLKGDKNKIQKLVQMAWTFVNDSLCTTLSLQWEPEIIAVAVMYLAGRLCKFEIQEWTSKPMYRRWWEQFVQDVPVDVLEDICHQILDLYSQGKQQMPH
# [15] = target: CDK13-cyclin K (Homo sapiens, UniProt Q14004); assay: radiometric in vitro kinase assay; assay type: biochemical; conditions: relative to THZ531
# Sequence of CDK13-cyclin K (Q14004 694-1039 limits assumed): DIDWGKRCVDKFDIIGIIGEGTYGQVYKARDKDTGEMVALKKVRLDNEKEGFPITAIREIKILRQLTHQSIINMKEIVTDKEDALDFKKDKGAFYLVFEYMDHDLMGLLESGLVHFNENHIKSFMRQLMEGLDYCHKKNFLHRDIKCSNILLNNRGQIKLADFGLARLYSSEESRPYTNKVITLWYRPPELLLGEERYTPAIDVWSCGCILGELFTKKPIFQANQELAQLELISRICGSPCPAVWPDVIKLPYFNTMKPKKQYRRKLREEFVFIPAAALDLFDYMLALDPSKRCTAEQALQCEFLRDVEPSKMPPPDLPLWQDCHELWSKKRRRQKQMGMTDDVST
# Sequence of CDK13-cyclin K (O75909 1-267 partner limits assumed): as the sequence (O75909 1-267 partner limits assumed) above
# [16] = target: CDK9-cyclin T1 (Homo sapiens, UniProt P50750); assay: radiometric in vitro kinase assay; assay type: biochemical; conditions: compared with THZ531
# Sequence of CDK9-cyclin T1 (P50750 whole entry): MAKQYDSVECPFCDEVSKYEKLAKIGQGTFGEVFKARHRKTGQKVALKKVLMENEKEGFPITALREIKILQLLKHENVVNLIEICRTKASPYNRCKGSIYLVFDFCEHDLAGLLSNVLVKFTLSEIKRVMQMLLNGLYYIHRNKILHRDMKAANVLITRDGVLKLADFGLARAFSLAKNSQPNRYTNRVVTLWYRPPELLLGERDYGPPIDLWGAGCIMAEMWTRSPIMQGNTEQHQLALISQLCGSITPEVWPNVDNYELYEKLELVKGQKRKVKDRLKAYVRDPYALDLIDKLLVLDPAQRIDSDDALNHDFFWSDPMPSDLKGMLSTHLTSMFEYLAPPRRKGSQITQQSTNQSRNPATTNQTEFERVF
# Sequence of CDK9-cyclin T1 (O60563 1-272 partner limits assumed): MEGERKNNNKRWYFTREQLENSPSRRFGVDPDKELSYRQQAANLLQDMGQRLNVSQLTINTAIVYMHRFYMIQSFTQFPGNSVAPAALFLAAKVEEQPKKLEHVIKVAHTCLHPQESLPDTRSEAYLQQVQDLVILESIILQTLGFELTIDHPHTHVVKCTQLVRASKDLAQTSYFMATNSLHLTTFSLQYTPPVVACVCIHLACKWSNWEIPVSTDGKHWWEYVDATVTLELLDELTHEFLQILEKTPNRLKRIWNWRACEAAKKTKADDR
# [17] = tested on: CDK12-cyclin K, CDK13-cyclin K and CDK7-cyclin H complexes; conditions: 1 µM biotinylated probe
# [18] = target: human CDK12 residues 715-1052 (human, UniProt Q9NYV4-1 715-1052, THZ531 covalently bound to Cys-1039; phosphorylated (site not stated)); assay: crystal structure
# Sequence of human CDK12 residues 715-1052 (Q9NYV4 715-1052): as the sequence (Q9NYV4 715-1052, one chain of several) above
molecule,measurement,setting,value
CN(C)C/C=C/C(=O)Nc1ccc(C(=O)Nc2cccc(Nc3ncc(Cl)c(-c4c[nH]c5ccccc45)n3)c2)cc1 [THZ1],effect on Pol II CTD phosphorylation,[1],complete loss of Pol II CTD phosphorylation
"CN(C)C/C=C/C(=O)Nc1ccc(C(=O)N2CCC[C@@H](Nc3ncc(Cl)c(-c4c[nH]c5ccccc45)n3)C2)cc1 [THZ531, (R,E)-N-(4-(3-((5-chloro-4-(1H-indol-3-yl)pyrimidin-2-yl)amino)piperidine-1-carbonyl)phenyl)-4-(dimethylamino)but-2-enamide]",effect on Pol II CTD phosphorylation,[2],selectively reduced Ser2 phosphorylation levels without appreciable effect on CTD pSer5/pSer7 levels
same,covalent binding to CDK12-cyclin K,[3],Near complete covalent binding
same,effect of CDK12 C1039S substitution on antiproliferative effect,[4],partial restoration of cellular proliferation
same,IC50,"[5]; Homo sapiens, Jurkat, 72 h, read-out: IC50 Jurkat cell proliferation",50 nM
same,inhibitory effect on ERK1,[6],no appreciable inhibitory effect
same,binding to intracellular CDK12-cyclin K vs CDK7-cyclin H,[7],binds intracellular CDK12-cyclin K complexes with higher affinity than CDK7-cyclin H complexes
same,percentage of apoptotic cells over DMSO control,"[8]; 50 nM, time course of the experiment",no increase in the percentage of apoptotic cells
same,annexin V-positively stained cells,"[8]; higher doses (above 50 nM), by 72 hrs",30–40%
same,Ambit profiling score of CDK13,[9],among the top scoring kinases
same,labeling of the other 211 kinases (not CDK12 and 13),[10],≤ 55%
same,pSer2 ChIP-seq signal,[11]; 50 nM,did not appreciably change pSer2 ChIP-seq signal
same,pSer2 ChIP-seq signal,[11]; 500 nM,dramatic decrease in 3’ end –associated pSer2 ChIP-seq signal
same,"expression of core DDR genes BRCA1, FANCF, ERCC4",[12]; 50 nM,substantial loss of expression
"CN(C)CCCC(=O)Nc1ccc(C(=O)N2CCC[C@@H](Nc3ncc(Cl)c(-c4c[nH]c5ccccc45)n3)C2)cc1 [THZ531R, (R)-N-(4-(3-((5-chloro-4-(1H-indol-3-yl)pyrimidin-2-yl)amino)piperidine-1-carbonyl)phenyl)-4-(dimethylamino)butanamide]",inhibition activity on CDK7,[13],similarly–low–inhibition activity
same,effect on Pol II CTD phosphorylation,[2],decreased neither Ser2 phosphorylation
same,fold less active on CDK12 than THZ531,[14],50–100 fold
same,fold less active on CDK12 than THZ531,[14]; listed as reversible analog,more than 100 fold
same,fold less active on CDK13 than THZ531,[15],50–100 fold
same,fold less active on CDK13 than THZ531,[15]; listed as reversible analog,more than 100 fold
same,antiproliferative activity in Jurkat cells,[5],minimal antiproliferative activity
same,effect on steady-state mRNA levels,[12],decreased neither Ser2 phosphorylation nor steady-state mRNA levels
same,inhibition activity on CDK9,[16],similarly–low–inhibition activity
"CN(C)C/C=C/C(=O)Nc1ccc(C(=O)N2CCC[C@H](Nc3ncc(Cl)c(-c4c[nH]c5ccccc45)n3)C2)cc1 [THZ532, (S,E)-N-(4-(3-((5-chloro-4-(1H-indol-3-yl)pyrimidin-2-yl)amino)piperidine-1-carbonyl)phenyl)-4-(dimethylamino)but-2-enamide]",inhibition activity on CDK7,[13],similarly–low–inhibition activity
same,effect on Pol II CTD phosphorylation,[2],decreased neither Ser2 phosphorylation
same,antiproliferative activity in Jurkat cells,[5],minimal antiproliferative activity
same,effect on steady-state mRNA levels,[12],decreased neither Ser2 phosphorylation nor steady-state mRNA levels
same,inhibition activity on CDK9,[16],similarly–low–inhibition activity
"CN(C/C=C/C(=O)Nc1ccc(C(=O)Nc2cccc(Nc3ncc(Cl)c(-c4c[nH]c5ccccc45)n3)c2)cc1)CCCNC(=O)NCCOCCOCCOCCNC(=O)CCCC[C@@H]1SC[C@@H]2NC(=O)N[C@@H]21 [bioTHZ1, reference compound]",complexes pulled down,[17],"pulls down CDK7, CDK12, and 13 complexes"
"CC1NC(=O)NC1CCCCCC(=O)NCCOCCOCCOCCNC(=O)CCN(C)C/C=C/C(=O)Nc1ccc(C(=O)N2CCC[C@@H](Nc3ncc(Cl)c(-c4c[nH]c5ccccc45)n3)C2)cc1 (stereo partly drawn) [bioTHZ531, N-((E)-20-((4-((R)-3-((5-chloro-4-(1H-indol-3-yl)pyrimidin-2-yl)amino)piperidine-1-carbonyl)phenyl)amino)-16-methyl-13,20-dioxo-3,6,9-trioxa-12,16-diazaicos-18-en-1-yl)-6-(5-methyl-2-oxoimidazolidin-4-yl)hexanamide]",complexes pulled down,[17],"pulls down CDK12-cyclin K and CDK13-cyclin K complexes, but not CDK7-cyclin H complexes"
"human cyclin K residues 11-267 (domain or fragment, UniProt O75909 11-267, looked up) SVTSANLDHTKPCWYWDKKDLAHTPSQLEGLDPATEARYRREGARFIFDVGTRLGLHYDTLATGIIYFHRFYMFHSFKQFPRYVTGACCLFLAGKVEETPKKCKDIIKTARSLLNDVQFGQFGDDPKEEVMVLERILLQTIKFDLQVEHPYQFLLKYAKQLKGDKNKIQKLVQMAWTFVNDSLCTTLSLQWEPEIIAVAVMYLAGRLCKFEIQEWTSKPMYRRWWEQFVQDVPVDVLEDICHQILDLYSQGKQQMPH",binding result,[18],binds
